In patent US20190307811A1, “METHOD FOR TREATING AIRWAYS DISEASE” (HUDSON INSTITUTE OF MEDICAL RESEARCH, priority 2016, published 2019):

How the values were obtained:
[1] = system: bleomycin (BLM)-induced model of pulmonary fibrosis; experiment: Interstitial fibrosis, bleomycin-induced pulmonary fibrosis model; type: in vivo; details: BLM-injured mice, treatment days 22-28
Experimental: (§1) The following is relevant to Example 10. A bleomycin (BLM)-induced model of pulmonary fibrosis was established in mice (n=49). Mice were intranasally (IN) administered with 20 μg of bleomycin sulphate (Hospira, Melbourne, Victoria, Australia) in 50 μl of saline (equivalent to 400 μg/ml; 25 μl per nare) on days 0 and 7. For control mice (n=7), however, instead of BLM, they were given IN administration (50 μL per mouse) of 0.9% w/v saline on days 0 and 7. All mice were then left untreated for a further two weeks (until day 21).
(§2) On day 22 (1 day following completion of induction of the BLM-induced pulmonary fibrosis model), mice were lightly anaesthetized with isoflurane (Baxter Health Care, NSW, Australia) and held in a semi-supine position while IN administration of the appropriate treatment took place. The following treatments were administered daily or once-weekly to mice, from days 22-28.
(§3) BLM alone (injury control group): a-sub-group of mice (n=7) received 50 μL of phosphate buffered saline (PBS; the vehicle for Pirfenidone, AECs and AEC-derived exosomes; 25 μL per nare) daily, using an automatic pipette from days 22-28,
(§4) Pirfenidone: a separate sub-group of mice (n=7) received 1 mg of Pirfenidone (Tocris Bioscience, Noble Park, Victoria, Australia) per day (equivalent to 50 mg/kg/day) by twice daily oral gavage, from days 22-28. […]

[2] = system: bleomycin (BLM)-induced model of pulmonary fibrosis; experiment: Subepithelial ECM/collagen deposition, bleomycin-induced pulmonary fibrosis model; type: in vivo; details: BLM-injured mice, treatment days 22-28
Experimental: as §1, §2, §3, §4

[3] = system: bleomycin (BLM)-induced model of pulmonary fibrosis; experiment: Lung inflammation score, bleomycin-induced pulmonary fibrosis model; type: in vivo; details: BLM-injured mice, treatment days 22-28
Experimental: as §1, §2, §3, §4

[4] = system: chronic model of ovalbumin (OVA)-induced AAD; experiment: Peri-bronchial inflammation score, chronic OVA-induced AAD model; type: in vivo, Balb/c mice; details: scale 0 to 4; OVA-treated mice, intranasal treatment days 64-77; OVA alone 1.70±0.60, saline 0.15±0.40
Experimental: Six-to-eight week-old female Balb/c mice were obtained from Monash Animal Services (Monash University, Clayton, Victoria, Australia) and housed under a controlled environment, on a 12 hour light/12 hour dark lighting cycle with free access to water and lab chow (Barastock Stockfeeds, Pakenham, Victoria, Australia). All mice were provided an acclimatization period of 4-5 days before any experimentation.
(§5) To assess the individual vs combined effects of MSCs, AECs and RLX (serelaxin) in chronic AAD, a chronic model of ovalbumin (OVA)-induced AAD was established in mice (n=36). Mice were sensitized with two i.p. injections of 10 μg of Grade V chicken egg OVA (Sigma-Aldrich, Mo., USA) and 400 μg of aluminium potassium sulphate adjuvant (alum; AJAX Chemicals, NSW, Australia) in 500 μl of 0.9% w/v normal saline solution (Baxter Health Care, NSW, Australia) on day 0 and day 14. They were then challenged by whole body inhalation exposure (nebulization) to aerosolized OVA (2.5% w/v in 0.9% w/v normal saline) for thirty minutes, three times a week, between days 21 and 63, using an ultrasonic nebulizer (Omron NE-U07; Omron, Kyoto, Japan). Control mice (n=6) were given i.p injections of 500 μl 0.9% w/v saline and nebulized with 0.9% w/v saline instead of OVA. […]

[5] = system: chronic model of ovalbumin (OVA)-induced AAD; experiment: Epithelial thickness (Masson's trichrome), chronic OVA-induced AAD model; type: in vivo, Balb/c mice; details: relative to BM length; OVA-treated mice; OVA alone 21.20±0.60, saline 16.89±0.76
Experimental: (§6) To assess the individual vs combined effects of MSCs, AECs and RLX (serelaxin) in chronic AAD, a chronic model of ovalbumin (OVA)-induced AAD was established in mice (n=36). Mice were sensitized with two i.p. injections of 10 μg of Grade V chicken egg OVA (Sigma-Aldrich, Mo., USA) and 400 μg of aluminium potassium sulphate adjuvant (alum; AJAX Chemicals, NSW, Australia) in 500 μl of 0.9% w/v normal saline solution (Baxter Health Care, NSW, Australia) on day 0 and day 14. They were then challenged by whole body inhalation exposure (nebulization) to aerosolized OVA (2.5% w/v in 0.9% w/v normal saline) for thirty minutes, three times a week, between days 21 and 63, using an ultrasonic nebulizer (Omron NE-U07; Omron, Kyoto, Japan). Control mice (n=6) were given i.p injections of 500 μl 0.9% w/v saline and nebulized with 0.9% w/v saline instead of OVA.
(§7) On day 64 (1 day following completion of induction of the chronic AAD model), mice were lightly anaesthetized with isoflurane (Baxter Health Care, NSW, Australia) and held in a semisupine position while intranasal administration of the appropriate treatment took place. […]

[6] = system: thymic stromal lymphopoietin (TSLP); experiment: TSLP immunohistochemistry (epithelial damage), chronic OVA-induced AAD model; type: in vivo, Balb/c mice; details: OVA-treated mice; OVA alone 4.61±0.53, saline 1.00±0.30
Experimental: (§8) To assess the individual vs combined effects of MSCs, AECs and RLX (serelaxin) in chronic AAD, a chronic model of ovalbumin (OVA)-induced AAD was established in mice (n=36). Mice were sensitized with two i.p. injections of 10 μg of Grade V chicken egg OVA (Sigma-Aldrich, Mo., USA) and 400 μg of aluminium potassium sulphate adjuvant (alum; AJAX Chemicals, NSW, Australia) in 500 μl of 0.9% w/v normal saline solution (Baxter Health Care, NSW, Australia) on day 0 and day 14. […]
(§9) IHC was used to detect TGF-β1 (using a polyclonal antibody; sc-146; Santa Cruz Biotechnology, Santa Cruz, Calif., USA; 1:1000 dilution), α-smooth muscle actin (α-SMA; a marker of myofibroblast differentiation; using a monoclonal antibody; M0851; DAKO Antibodies, Glostrup, Denmark; 1:200 dilution) and thymic stromal lymphopoietin (TSLP; a marker for epithelial damage; using a polyclonal antibody; ABT330; EMD Millipore Corp'. Temecula, Calif., USA; 1:1000 dilution). Primary antibody staining was detected using the DAKO EnVision anti-rabbit or anti-mouse kits and 3,3′-Diaminobenzidine (DAB) chromogen, while negative controls, which were exposed to the EnVision kits in the absence of any primary antibody, were also included. […]

[7] = system: goblet cells; experiment: Goblet cell metaplasia (ABPAS staining), chronic OVA-induced AAD model; type: in vivo, Balb/c mice; details: OVA-treated mice; OVA alone 4.83±0.20, saline 1.62±0.32
Experimental: as §6, §7

[8] = system: chronic model of ovalbumin (OVA)-induced AAD; experiment: Subepithelial collagen deposition (Masson's trichrome), chronic OVA-induced AAD model; type: in vivo, Balb/c mice; details: OVA-treated mice; OVA alone 26.26±1.37, saline 8.07±0.58
Experimental: as §6, §7

[9] = system: chronic model of ovalbumin (OVA)-induced AAD; experiment: Hydroxyproline assay of total lung collagen concentration, chronic OVA-induced AAD model; type: in vivo, Balb/c mice; details: collagen content/dry weight, OVA alone 3.82±0.10, saline 2.84±0.11
Experimental: as §5
The second largest lung lobe from each mouse was processed as previously described (Royce et al. (2009) supra; Royce et al. (2014) supra; Royce et al. (2015) supra) for the measurement of hydroxyproline content, which was determined from a standard curve of purified trans-4-hydroxy-L-proline (Sigma-Aldrich). […]

[10] = system: TGF-β1; experiment: Airway epithelial TGF-β1 immunohistochemistry, chronic OVA-induced AAD model; type: in vivo, Balb/c mice; details: relative to saline-treated controls expressed as 1; OVA alone 10.65±0.81
Experimental: as §8, §9

[11] = system: α-SMA-stained myofibroblasts; experiment: Subepithelial myofibroblast accumulation (α-SMA IHC), chronic OVA-induced AAD model; type: in vivo, Balb/c mice; details: OVA-treated mice; OVA alone 1.72±0.07, saline 0.44±0.13
Experimental: as §8, §9

[12] = system: chronic model of ovalbumin (OVA)-induced AAD; experiment: AHR by invasive plethysmography (methacholine), chronic OVA-induced AAD model; type: in vivo, Balb/c mice; details: airway resistance to nebulized methacholine; vs OVA group
Experimental: as §5
On day 78 (24 hours after the final intranasal administration of PBS or various treatments detailed), mice were anesthetized with an i.p injection of ketamine 10 mg/kg and xylazine 2 mg/kg BW (in 0.9% w/v saline). […] The airway resistance of each mouse was then measured (reflecting changes in AHR) in response to increasing doses of nebulized acetyl-β-methylcholine chloride (methacholine; Sigma Aldrich, Mo., USA), delivered intratracheally, from 3.125-50 mg/ml over 5 doses, to elicit bronchoconstriction. […]

| Molecule | bleomycin-induced increase in interstitial fibrosis [1] | bleomycin-induced increase in subepithelial ECM/collagen deposition [2] | bleomycin-induced lung inflammation (inflammation score) [3] | peri-bronchial inflammation score [4] | epithelial thickness [5] [μm^2] | number of TSLP-positive cells within the airway epithelium [6] | goblet cell count [7] | subepithelial collagen (relative to basement membrane length) [8] [μm] | total lung collagen concentration [9] [%] | epithelial TGF-β1 expression [10] | number of α-SMA-stained myofibroblasts in the subepithelial layer [11] [per 100 μm BM length] | decrease of AHR [12] [%] |
| --- | --- | --- | --- | --- | --- | --- | --- | --- | --- | --- | --- | --- |
| Cc1ccc(=O)n(-c2ccccc2)c1 [pirfenidone, Pirfenidone] | normalized | no effect | only partially reduce |  |  |  |  |  |  |  |  |  |
| Serelaxin [RLX] |  |  |  | 1.55±0.83 | 18.19±0.74 | 3.14±0.34 per 100 μm of BM length | 5.08±0.25 goblet cells/100 μm BM length | 18.27±2.26 | 3.08±0.23 | 5.85±1.42 | 1.08±0.10 | ~50 |
